SMILES strings stand for the structures.

The results in this text go back to ChEMBL document CHEMBL5038634, “Virtual Screening Directly Identifies New Fragment-Sized Inhibitors of Carboxylesterase Notum with Nanomolar Activity” (J Med Chem, 2022).

Assay [1] addresses T1, Palmitoleoyl-protein carboxylesterase NOTUM (Homo sapiens, UniProt Q6P988, C330S). The assay can be described thus: Inhibition of human Notum (81 to 451 Cys330Ser) using OPTS as substrate incubated for 40 mins by fluorescence based assay.
For assay [2], the target named is T1, Palmitoleoyl-protein carboxylesterase NOTUM. The assay can be described thus: Inhibition of Notum (81 to 451 Cys330Ser) in HEK293T cells expressing TCF-LEF assessed as activation of Wnt signaling using WNT3A as substrate incubated for […] by Steady-Glo luciferase assay. The class given is cell-based.

Broadly, the IC50 is the concentration needed to halve the response being measured. The low end stands for greater potency, the high end for weaker potency. Regarding `O=C1OC(c2ccc(Cl)cc2Cl)=N/C1=C/c1ccco1`, the IC50 in assay [1] was determined as 48 nM.

In assay [1], `Cc1ccc(S(=O)(=O)c2ccc3n[nH]c(=O)n3n2)cc1` returned an IC50 of more than 10000 nM.

The term EC50 denotes the concentration at which the effect is half-maximal. Take `COc1cccc(Sc2ccc3n[nH]c(=O)n3n2)c1`: the IC50 in assay [1] came to 15 nM. Also, the EC50 in assay [2] is 140 nM.

For `Cc1ccc(Sc2ccc3nn(C)c(=O)n3n2)cc1`, the IC50 in assay [1] is more than 10000 nM.

The molecule `Cc1ccc(C2=N/C(=C/c3ccccc3)C(=O)O2)cc1C` displayed an IC50 in assay [1] of 200 nM.

`O=c1[nH]nc2ccc(Sc3cccc(Cl)c3Cl)nn12` had an IC50 in assay [1] of 13 nM. Besides, the EC50 in assay [2] was 150 nM.

The molecule `Cc1ccc(Nc2ccc3n[nH]c(=O)n3n2)cc1` displayed a 50% inhibitory concentration (IC50) in assay [1] of 690 nM.

In assay [1], `O=c1[nH]nc2ccc(Sc3ncccn3)nn12` had an IC50 of more than 10000 nM.

On to `O=c1[nH]nc2ccc(Sc3ccc(F)cc3)nn12`, for which, in assay [1], the IC50 amounted to 94 nM. Further, the EC50 in assay [2] stood at 540 nM.

As for `O=c1[nH]nc2ccc(Sc3ccc(Cl)cc3Cl)nn12`, the IC50 in assay [1] was 20 nM. Further, the EC50 in assay [2] came to 380 nM.

With `Cc1ccc(/C=C2/N=C(c3ccc(C)c(C)c3)OC2=O)o1`, the midpoint of inhibition in assay [1], the IC50, lay at 8.5 nM.

For the molecule `O=c1[nH]nc2ccc(Sc3cccc(C(F)(F)F)c3)nn12`, in assay [1], 17 nM corresponded to half-maximal inhibition (IC50). In assay [2], the EC50 came out at 190 nM.

In turn, `O=c1[nH]nc2ccc(Sc3cccc(F)c3F)nn12` showed an IC50 in assay [1] of 63 nM.

In the case of `Cc1ccc([S+]([O-])c2ccc3n[nH]c(=O)n3n2)cc1` (configuration not stated), the IC50 in assay [1] is more than 10000 nM.

In turn, `O=C1OC(c2cccc(Cl)c2Cl)=N/C1=C/c1cccs1` had an IC50 in assay [1] of 54 nM.

`CC(C)Oc1cccc(Sc2ccc3n[nH]c(=O)n3n2)c1` yielded an IC50 in assay [1] of 25 nM. Moreover, the concentration giving a half-maximal response (EC50) in assay [2] amounted to 260 nM.

On to `CSc1cccc(Sc2ccc3n[nH]c(=O)n3n2)c1`, for which half-maximal inhibition in assay [1] (IC50) required 24 nM. Also, the EC50 in assay [2] amounted to 380 nM.

Regarding `Cc1cccc(Sc2ccc3n[nH]c(=O)n3n2)c1C`, in assay [1], the IC50 was determined as 14 nM.

Regarding `Cc1ccnc(Sc2ccc3n[nH]c(=O)n3n2)c1`, the IC50 in assay [1] turned out to be 2700 nM.

`Cc1ccc(Sc2nn3c(=O)[nH]nc3c(C)c2C)cc1`: in assay [1], the IC50 is more than 10000 nM.

Regarding `Cc1ccc(C2=N/C(=C/c3cccs3)C(=O)O2)cc1C`, the IC50 in assay [1] is 24 nM.

`CCOc1cccc(Sc2ccc3n[nH]c(=O)n3n2)c1` gave an IC50 in assay [1] of 20 nM. For the same molecule, the EC50 in assay [2] amounted to 150 nM.

Regarding `Cc1ccc(Sc2ccc3n[nH]c(=O)n3n2)c(C)c1`, half-maximal inhibition in assay [1] (IC50) was put at 27 nM. The EC50 in assay [2] turned out to be 300 nM.

The molecule `Cc1ccc(Cc2ccc3n[nH]c(=O)n3n2)cc1` gave an IC50 in assay [1] of 240 nM.

In turn, `O=C1OC(c2ccc(Cl)cc2Cl)=N/C1=C\c1ccco1` gave an IC50 in assay [1] of 14 nM.

`Cc1ccc(N(C)c2ccc3n[nH]c(=O)n3n2)cc1` yielded an IC50 in assay [1] of 990 nM.

On to `Cc1ccc(Sc2cc(C)c3n[nH]c(=O)n3n2)cc1`, for which inhibition in assay [1] was half-maximal at 70 nM (IC50).

`O=c1[nH]nc2ccc(Sc3ccncn3)nn12`: the IC50 in assay [1] was more than 10000 nM.
